Assay results: US20130030012A1, “COMPOUNDS” (Glaxo Group Limited, priority 2011, published 2013)
Like-named read-outs stand apart in the source and are kept apart here.

What was measured:
[1] = target: T1, recombinant human Lp-PLA2 (Homo sapiens, UniProt Q13093); assay: Recombinant human Lp-PLA2 assay (rhLp-PLA2, PED6 assay); format: biochemical; conditions: upper limit for pIC50 in this assay is 9.3
T1 sequence (Q13093 22-441): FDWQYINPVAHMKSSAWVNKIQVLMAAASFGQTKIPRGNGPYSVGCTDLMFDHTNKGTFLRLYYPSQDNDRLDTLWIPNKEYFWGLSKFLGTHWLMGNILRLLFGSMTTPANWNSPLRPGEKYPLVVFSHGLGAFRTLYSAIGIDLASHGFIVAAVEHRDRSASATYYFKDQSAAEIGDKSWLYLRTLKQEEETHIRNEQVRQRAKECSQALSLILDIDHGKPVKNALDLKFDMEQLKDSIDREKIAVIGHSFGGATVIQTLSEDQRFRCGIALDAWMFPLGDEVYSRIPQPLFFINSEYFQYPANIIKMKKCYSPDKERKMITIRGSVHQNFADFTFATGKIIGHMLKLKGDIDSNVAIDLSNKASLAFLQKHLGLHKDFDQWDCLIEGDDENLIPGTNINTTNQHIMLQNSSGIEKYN
Outline: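 Enzyme at 4 nM (or 110 pM) in 50 mM HEPES pH 7.4, 150 mM NaCl, 1 mM CHAPS, preincubated with compound 30 min. PED6 substrate ([…] 5 μM, as printed) then added and reaction run 20 min at room temperature, protected from light. Fluorescence read at ex 480/em 540; pIC50 from curve fitting.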

Lp-PLA2 in human plasma = target: T2, Lp-PLA2 in human plasma (Homo sapiens, UniProt Q13093); assay: Lp-PLA2 human plasma assay (Thio-PAF assay); format: biochemical; conditions: pooled human plasma; read-out: pIC50 values in the thio-PAF assay (converted)
T2 construct: from tissue; host or cells: pooled human plasma
T2 sequence (Q13093 22-441): T1 sequence (Q13093 22-441)
Outline: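 Pooled human plasma preincubated 30 min with compounds, then given substrate mix of 2.5 mM 2-thio-PAF, […] and 3.2 mM NEM (concentrations in substrate solution) in pH 7.4 HEPES/NaCl/CHAPS buffer. Quenched with TFA after 2 min; CPM-thiol fluorescence read at ex 380/em 485 to give pIC50.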

[2] = read-out: pIC50 values in the PED6 assay (converted)

Row | Structure (SMILES) | IC50 [1, 2] [nM] | IC50 (Lp-PLA2 in human plasma) [nM] | IC50 ([1]; Table 1, read-out: rhLp-PLA2 (PED6 assay) (pIC50) (converted)) [nM]
1 | CN1CCCn2c1cc(OCc1cc(F)c(Oc3cccc(Cl)c3)c(F)c1)nc2=O [Example 90, 8-((4-(3-chlorophenoxy)-3,5-difluorobenzyl)oxy)-1-methyl-3,4-dihydro-1H-pyrimido[1,6-a]pyrimidin-6(2H)-one] | ≤ 1 | ≤ 1000 | 
2 | O=c1nc(OCc2cc(F)c(Oc3ccc(F)c(F)c3)c(F)c2)cc2n1CCCN2 [Example 91, 8-((4-(3,4-difluorophenoxy)-3,5-difluorobenzyl)oxy)-3,4-dihydro-1H-pyrimido[1,6-a]pyrimidin-6(2H)-one] | ≤ 1 | ≤ 100 | 
3 | N#Cc1cc(COc2cc3n(c(=O)n2)CCCN3)ccc1Oc1ccc(C(F)(F)F)cn1 [Example 92, 5-(((6-oxo-2,3,4,6-tetrahydro-1H-pyrimido[1,6-a]pyrimidin-8-yl)oxy)methyl)-2-((5-(trifluoromethyl)pyridin-2-yl)oxy)benzonitrile] | ≤ 10 | ≤ 100 | 
4 | O=c1nc(OCc2cc(F)c(Oc3ccc(F)c(C(F)(F)F)c3)c(F)c2)cc2n1CCCN2 [Example 93, 8-((3,5-difluoro-4-(4-fluoro-3-(trifluoromethyl)phenoxy)benzyl)oxy)-3,4-dihydro-1H-pyrimido[1,6-a]pyrimidin-6(2H)-one] | ≤ 1 | ≤ 100 | ≤ 0.501
5 | N#Cc1cc(COc2cc3n(c(=O)n2)CCCN3)ccc1Oc1ccc(F)c(F)c1 [Example 94, 2-(3,4-difluorophenoxy)-5-(((6-oxo-2,3,4,6-tetrahydro-1H-pyrimido[1,6-a]pyrimidin-8-yl)oxy)methyl)benzonitrile] | ≤ 1 | ≤ 100 | 
6 | CN1CCCn2c1cc(OCc1ccc(Oc3ccc(Cl)nc3)c(F)c1)nc2=O [Example 95, 8-((4-((6-chloropyridin-3-yl)oxy)-3-fluorobenzyl)oxy)-1-methyl-3,4-dihydro-1H-pyrimido[1,6-a]pyrimidin-6(2H)-one] | ≤ 1 | ≤ 100 | 
7 | CN1CCCn2c1cc(OCc1ccc(Oc3ccc(Cl)c(F)c3)c(C#N)c1)nc2=O [Example 96, 2-(4-chloro-3-fluorophenoxy)-5-(((1-methyl-6-oxo-2,3,4,6-tetrahydro-1H-pyrimido[1,6-a]pyrimidin-8-yl)oxy)methyl)benzonitrile] | ≤ 1 | ≤ 100 | 
8 | O=c1nc(OCc2ccc(Oc3ccc(Cl)c(C(F)(F)F)c3)c(F)c2)cc2n1CCCN2 [Example 97, 8-((4-(4-chloro-3-(trifluoromethyl)phenoxy)-3-fluorobenzyl)oxy)-3,4-dihydro-1H-pyrimido[1,6-a]pyrimidin-6(2H)-one] | ≤ 1 | ≤ 100 | 
9 | CN1CCCn2c1cc(OCc1ccc(Oc3cc(F)cc(C#N)c3)c(F)c1)nc2=O [Example 98, 3-fluoro-5-(2-fluoro-4-(((1-methyl-6-oxo-2,3,4,6-tetrahydro-1H-pyrimido[1,6-a]pyrimidin-8-yl)oxy)methyl)phenoxy)benzonitrile] | ≤ 1 | ≤ 100 | 
10 | O=c1nc(OCc2ccc(F)c(F)c2)cc2n1CCCN2 [Example 99, 8-((3,4-difluorobenzyl)oxy)-3,4-dihydro-1H-pyrimido[1,6-a]pyrimidin-6(2H)-one] | ≤ 10 | ≤ 100 | 
11 | O=c1nc(OCc2ccc(Oc3ccc(F)c(C(F)(F)F)c3)cc2)cc2n1CCCN2 [Example 100, 8-((4-(4-fluoro-3-(trifluoromethyl)phenoxy)benzyl)oxy)-3,4-dihydro-1H-pyrimido[1,6-a]pyrimidin-6(2H)-one] | ≤ 1 | ≤ 100 | 
12 | O=c1nc(OCc2ccc(Oc3cccc(C(F)(F)F)c3)c(F)c2)cc2n1CCCN2 [Example 101, 8-((3-fluoro-4-(3-(trifluoromethyl)phenoxy)benzyl)oxy)-3,4-dihydro-1H-pyrimido[1,6-a]pyrimidin-6(2H)-one] | ≤ 1 | ≤ 100 | 
13 | CN1CCCn2c1cc(OCCc1ccc(Oc3ccc(Cl)c(F)c3)c(F)c1)nc2=O [Example 102, 8-(4-(4-chloro-3-fluorophenoxy)-3-fluorophenethoxy)-1-methyl-3,4-dihydro-1H-pyrimido[1,6-a]pyrimidin-6(2H)-one] | ≤ 1 | ≤ 1000 | 
14 | CN1CCCn2c1cc(OCCc1ccc(Oc3ccc(Cl)c(F)c3)cc1)nc2=O [Example 103, 8-(4-(4-chloro-3-fluorophenoxy)phenethoxy)-1-methyl-3,4-dihydro-1H-pyrimido[1,6-a]pyrimidin-6(2H)-one] | ≤ 10 | ≤ 1000 | 
15 | N#Cc1ccc(Oc2ccc(COc3cc4n(c(=O)n3)CCCN4)cc2C#N)cc1F [Example 104, 4-(2-cyano-4-(((6-oxo-2,3,4,6-tetrahydro-1H-pyrimido[1,6-a]pyrimidin-8-yl)oxy)methyl)phenoxy)-2-fluorobenzonitrile] | ≤ 1 | ≤ 100 | 
16 | CN1CCCn2c1cc(OCCc1ccc(Oc3cccc(C(F)(F)F)c3)c(F)c1)nc2=O [Example 105, 8-(3-fluoro-4-(3-(trifluoromethyl)phenoxy)phenethoxy)-1-methyl-3,4-dihydro-1H-pyrimido[1,6-a]pyrimidin-6(2H)-one] | ≤ 1 | ≤ 100 | 
17 | N#Cc1ccc(Oc2ccc(COc3cc4n(c(=O)n3)CCCN4)cc2C#N)cc1Cl [Example 106, 2-chloro-4-(2-cyano-4-(((6-oxo-2,3,4,6-tetrahydro-1H-pyrimido[1,6-a]pyrimidin-8-yl)oxy)methyl)phenoxy)benzonitrile] | ≤ 10 | ≤ 100 | 
18 | N#Cc1cc(COc2cc3n(c(=O)n2)CCCN3)ccc1Oc1ccc(Cl)c(C(F)(F)F)c1 [Example 107, 2-(4-chloro-3-(trifluoromethyl)phenoxy)-5-(((6-oxo-2,3,4,6-tetrahydro-1H-pyrimido[1,6-a]pyrimidin-8-yl)oxy)methyl)benzonitrile] | ≤ 1 | ≤ 100 | 
19 | O=c1nc(OCc2cc(F)c(F)c(F)c2)cc2n1CCCN2 [Example 113, 8-(3,4,5-trifluorobenzyloxy)-3,4-dihydro-1H-pyrimido[1,6-a]pyrimidin-6(2H)-one] | ≤ 10 | ≤ 100 | 
20 | O=c1nc(OCc2cc(F)c(Oc3ccc(F)cc3)c(F)c2)cc2n1CCCN2 [Example 114, 8-((3,5-difluoro-4-(4-fluorophenoxy)benzyl)oxy)-3,4-dihydro-1H-pyrimido[1,6-a]pyrimidin-6(2H)-one] | ≤ 1 | ≤ 100 | 
21 | O=c1nc(OCc2cc(F)c(Oc3cccc(F)c3)c(F)c2)cc2n1CCCN2 [Example 115, 8-((3,5-difluoro-4-(3-fluorophenoxy)benzyl)oxy)-3,4-dihydro-1H-pyrimido[1,6-a]pyrimidin-6(2H)-one] | ≤ 1 | ≤ 100 | 
22 | O=c1nc(OCc2ccc(Oc3cccc(F)c3)c(F)c2)cc2n1CCCN2 [Example 116, 8-((3-fluoro-4-(3-fluorophenoxy)benzyl)oxy)-3,4-dihydro-1H-pyrimido[1,6-a]pyrimidin-6(2H)-one] | ≤ 1 | ≤ 100 | 
23 | O=c1nc(OCc2ccc(Oc3ccc(F)c(F)c3)c(F)c2)cc2n1CCCN2 [Example 117, 8-((4-(3,4-difluorophenoxy)-3-fluorobenzyl)oxy)-3,4-dihydro-1H-pyrimido[1,6-a]pyrimidin-6(2H)-one] | ≤ 1 | ≤ 100 | 
24 | O=c1nc(OCc2ccc(Oc3ccc(F)cc3)c(F)c2)cc2n1CCCN2 [Example 118, 8-((3-fluoro-4-(4-fluorophenoxy)benzyl)oxy)-3,4-dihydro-1H-pyrimido[1,6-a]pyrimidin-6(2H)-one] | ≤ 1 | ≤ 100 | 
25 | O=c1nc(OCc2ccc(Oc3ccc(F)c(F)c3)cc2)cc2n1CCCN2 [Example 119, 8-((4-(3,4-difluorophenoxy)benzyl)oxy)-3,4-dihydro-1H-pyrimido[1,6-a]pyrimidin-6(2H)-one] | ≤ 1 | ≤ 100 | 
